Assay results taken from patent US5985589A, “Lipid kinase” (ICOS Corporation, priority 1999, dated 1999).

Test system: p110δ
Experiment: PI 3-kinase activity of immunoprecipitated FLAG-tagged p110δ (lipid kinase assay, TLC/autoradiography)
Format: biochemical, human
Settings: at 100 nM wortmannin; p110δ immunoprecipitated from transfected COS cells
Procedure: The FLAG-tagged p110δ was expressed by transfecting pCDNA3:p110δFLAG into COS cells using DEAE dextran. Three days after transfection, expression of p110δ was determined by immunoprecipitations and western blotting using the M2 monoclonal antibody (Kodak Scientific Imaging Systems) according to the manufacturer's instructions. PI 3-kinase activity was determined as described [Hu et al., Mol. Cell. Biol., 13:7677-7688 (1993)].
To determine the PI 3-kinase activity of p110δ, 5μl of immunoprecipitated p110δ was mixed with 1 μl of PI/EGTA and incubated at room temperature for 10 minutes [PI/EGTA is 10 mg/ml PI(Sigma) in CHCl3, which has been dried under a vacuum, resuspended in 20 mg/ml DMSO in the presence or absence of various concentrations of the PI3 kinase inhibitor wortmannin and diluted 1:10 in 5 mM EGTA] and added to 1 μl 10× HM buffer (200 mM HEPES pH7.2, 50 mM MnCl2), 0.5 μl γ^32 PATP (10 mCi/ml-300 Ci/mmol), 1 μl 100 μM ATP, and 1.5 μl H2 O and incubated at 30° C. for 15 minutes. The reactions were terminated by addition of 100μl 1M HCl. Lipids were extracted with 200 μl CHCl3 /MeOH (1:1) by vortexing for 1 minute followed by centrifugation at 16,000×g for 2 minutes at room temperature. The lipids were further extracted with 80 μl 1M HCl/MeOH (1:1) by vortexing for 1 minutes, followed by centrifugation at 16,000×g for 2 minutes at room temperature. […]

COC[C@H]1OC(=O)c2coc3c2[C@@]1(C)C1=C(C3=O)[C@@H]2CCC(=O)[C@@]2(C)C[C@H]1OC(C)=O [wortmannin]
inhibition of PI 3-kinase activity (generation of phosphorylated lipids): approximately 50%
